A value given as a limit tells only on which side of the number the result lay.

For four compounds, AC50 results are on record in ChEMBL document CHEMBL5291721, “A preclinical secondary pharmacology resource illuminates target-adverse drug reaction associations of marketed drugs” (Nat Commun, 2023).

Test [1] has as its target T1, Gastrin/cholecystokinin type B receptor (Homo sapiens, UniProt P32239).
T1 sequence (P32239 whole entry): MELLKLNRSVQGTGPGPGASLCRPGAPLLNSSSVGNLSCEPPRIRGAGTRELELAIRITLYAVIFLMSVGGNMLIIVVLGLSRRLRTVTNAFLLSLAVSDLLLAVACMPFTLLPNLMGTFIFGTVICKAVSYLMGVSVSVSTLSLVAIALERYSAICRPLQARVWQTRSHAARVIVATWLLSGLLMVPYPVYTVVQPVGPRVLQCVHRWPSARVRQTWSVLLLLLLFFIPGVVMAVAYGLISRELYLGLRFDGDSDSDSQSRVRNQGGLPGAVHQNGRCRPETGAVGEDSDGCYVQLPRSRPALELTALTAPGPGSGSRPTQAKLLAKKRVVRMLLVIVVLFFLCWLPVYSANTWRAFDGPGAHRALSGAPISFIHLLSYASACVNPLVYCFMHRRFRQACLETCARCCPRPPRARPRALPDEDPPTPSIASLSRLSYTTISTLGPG

For another test, the target named is T2, Progesterone receptor (Homo sapiens, UniProt P06401).
T2 sequence (P06401 whole entry): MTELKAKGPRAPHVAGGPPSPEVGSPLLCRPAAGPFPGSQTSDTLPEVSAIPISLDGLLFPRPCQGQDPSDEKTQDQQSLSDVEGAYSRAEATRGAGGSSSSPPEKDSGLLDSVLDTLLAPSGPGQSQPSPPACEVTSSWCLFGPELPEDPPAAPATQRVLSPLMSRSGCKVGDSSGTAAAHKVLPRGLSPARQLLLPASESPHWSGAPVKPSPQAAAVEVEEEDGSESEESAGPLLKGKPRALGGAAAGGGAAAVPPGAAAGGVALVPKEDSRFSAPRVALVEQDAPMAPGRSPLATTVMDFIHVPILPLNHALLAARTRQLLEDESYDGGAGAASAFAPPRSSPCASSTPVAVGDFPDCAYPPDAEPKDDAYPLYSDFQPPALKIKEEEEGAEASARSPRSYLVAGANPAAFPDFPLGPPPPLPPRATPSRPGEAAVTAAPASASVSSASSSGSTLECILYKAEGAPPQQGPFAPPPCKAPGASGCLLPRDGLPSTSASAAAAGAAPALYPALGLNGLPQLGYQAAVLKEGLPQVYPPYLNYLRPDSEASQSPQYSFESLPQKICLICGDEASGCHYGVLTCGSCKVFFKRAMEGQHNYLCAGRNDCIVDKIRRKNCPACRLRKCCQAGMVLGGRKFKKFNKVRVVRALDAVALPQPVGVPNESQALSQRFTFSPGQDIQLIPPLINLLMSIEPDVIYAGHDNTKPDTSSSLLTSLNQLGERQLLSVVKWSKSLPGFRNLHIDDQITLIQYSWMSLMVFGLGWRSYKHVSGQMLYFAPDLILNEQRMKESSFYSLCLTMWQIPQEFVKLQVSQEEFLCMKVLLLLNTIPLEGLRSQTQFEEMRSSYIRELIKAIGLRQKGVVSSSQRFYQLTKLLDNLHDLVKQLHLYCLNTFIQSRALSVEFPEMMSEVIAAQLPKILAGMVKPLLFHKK
It counts as functional.

For test [2], the target named is T3, Alpha-2A adrenergic receptor (Homo sapiens, UniProt P08913).
T3 sequence (P08913 whole entry): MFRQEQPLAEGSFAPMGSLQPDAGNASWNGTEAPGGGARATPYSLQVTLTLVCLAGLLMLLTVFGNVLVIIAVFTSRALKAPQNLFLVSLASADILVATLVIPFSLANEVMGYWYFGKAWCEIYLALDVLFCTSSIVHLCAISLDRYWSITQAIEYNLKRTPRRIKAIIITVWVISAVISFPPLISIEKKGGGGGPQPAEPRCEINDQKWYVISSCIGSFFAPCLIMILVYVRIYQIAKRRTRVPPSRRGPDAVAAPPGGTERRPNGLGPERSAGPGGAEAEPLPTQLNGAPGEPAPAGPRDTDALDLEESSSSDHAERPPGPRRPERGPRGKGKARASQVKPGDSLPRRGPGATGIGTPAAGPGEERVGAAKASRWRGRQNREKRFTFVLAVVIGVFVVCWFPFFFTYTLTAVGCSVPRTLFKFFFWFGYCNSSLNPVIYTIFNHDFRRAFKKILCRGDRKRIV

Test [3] addresses T4, Alpha-1A adrenergic receptor (Homo sapiens, UniProt P35348).
T4 sequence (P35348 whole entry): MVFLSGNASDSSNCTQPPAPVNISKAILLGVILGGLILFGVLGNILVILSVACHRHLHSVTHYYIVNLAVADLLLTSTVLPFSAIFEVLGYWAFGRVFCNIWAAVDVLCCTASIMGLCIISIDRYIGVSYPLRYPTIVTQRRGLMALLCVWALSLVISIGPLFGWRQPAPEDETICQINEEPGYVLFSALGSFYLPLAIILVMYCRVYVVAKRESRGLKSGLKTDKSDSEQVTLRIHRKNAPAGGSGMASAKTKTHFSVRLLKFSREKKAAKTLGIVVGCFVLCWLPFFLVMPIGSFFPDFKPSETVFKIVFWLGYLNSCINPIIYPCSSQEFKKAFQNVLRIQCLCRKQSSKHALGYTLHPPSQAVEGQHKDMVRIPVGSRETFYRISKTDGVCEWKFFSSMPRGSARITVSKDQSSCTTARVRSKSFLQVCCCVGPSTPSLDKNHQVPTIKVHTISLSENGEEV
It counts as functional, cell-based.

For test [4], the target named is T5, 5-hydroxytryptamine receptor 1A (Homo sapiens, UniProt P08908).
T5 sequence (P08908 whole entry): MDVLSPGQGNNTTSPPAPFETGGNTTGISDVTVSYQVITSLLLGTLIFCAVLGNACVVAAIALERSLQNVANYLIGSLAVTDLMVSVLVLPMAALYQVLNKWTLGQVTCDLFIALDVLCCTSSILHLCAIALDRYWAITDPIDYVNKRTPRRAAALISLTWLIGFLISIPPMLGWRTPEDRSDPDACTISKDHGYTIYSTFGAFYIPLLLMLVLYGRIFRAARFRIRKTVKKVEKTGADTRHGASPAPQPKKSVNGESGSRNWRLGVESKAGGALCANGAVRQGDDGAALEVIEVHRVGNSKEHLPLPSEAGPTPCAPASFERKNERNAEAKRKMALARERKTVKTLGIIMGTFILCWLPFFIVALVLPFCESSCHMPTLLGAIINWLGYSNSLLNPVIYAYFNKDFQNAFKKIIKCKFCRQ
It counts as functional, cell-based.
Also: assay procedure not described here.

`CN(C)CCC=C1c2ccccc2CCc2ccccc21` [AMITRIPTYLINE]: the AC50 (commonly the concentration at which the activity in the assay is half-maximal) in test [1] is over 30 µM; at Progesterone receptor it was over 30 µM; in test [2], 1.27 µM; in test [3] it was over 30 µM.
As for `NCC1(CC(=O)O)CCCCC1` [GABAPENTIN], the AC50 (in test [1]; on Progesterone receptor; in test [2]; in test [3]; in test [4]) was over 30 µM each time.
Consider `CS(=O)(=O)Nc1ccc([N+](=O)[O-])cc1Oc1ccccc1` [NIMESULIDE], for which the AC50 (in test [1]; on Progesterone receptor; in test [2]; in test [3]) was over 30 µM in each case.
Take `Cc1c(C)c2c(c(C)c1O)CCC(C)(COc1ccc(CC3SC(=O)NC3=O)cc1)O2` (stereo not drawn) [TROGLITAZONE]: the AC50 was over 30 µM in test [1]; 16 µM at Progesterone receptor; 10.3 µM in test [2]; over 30 µM in test [3]; 6.9 µM in test [4].
